From ChEMBL document CHEMBL1201862, “PubChem BioAssay data set” (2004)
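Values below derive from 48-hour exposures of cells grown in 96-well plates, with endpoints linearly interpolated between the two concentrations bracketing the appropriate inhibition level. GI50 marks 50% less growth.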 Activity calls are given as the source filed them. Cut-off read from the data, not from the text of the source: active = GI50 up to about 1.1 µM and inactive = higher.

What was measured:
Assay in all cases: growth of human tumour cells (NCI), 48 h
SK-OV-3 = system: SK-OV-3
A549 = system: A549
XF498 = system: XF498
UACC-62 = system: UACC-62
CAKI-1 = system: CAKI-1
DMS-114 = system: DMS-114
IGROV-1 = system: IGROV-1
NCI-H522 = system: NCI-H522
OVCAR-8 = system: OVCAR-8
RXF 393 = system: RXF 393
A498 = system: A498
NCI-H460 = system: NCI-H460
NCI-H23 = system: NCI-H23
SNB-75 = system: SNB-75
EKVX = system: EKVX
DMS-273 = system: DMS-273
HCC 2998 = system: HCC 2998
DLD-1 = system: DLD-1
SF-539 = system: SF-539
U-251 = system: U-251
SK-MEL-28 = system: SK-MEL-28
SNB-78 = system: SNB-78
KM-20L2 = system: KM-20L2
TK-10 = system: TK-10
OVCAR-5 = system: OVCAR-5
786-0 = system: 786-0
SR = system: SR
SW-620 = system: SW-620
HOP-18 = system: HOP-18
CCRF-CEM = system: CCRF-CEM
M14 = system: M14
KM12 = system: KM12
SK-MEL-5 = system: SK-MEL-5
UACC-257 = system: UACC-257
OVCAR-4 = system: OVCAR-4
LOX IMVI = system: LOX IMVI
SNB-19 = system: SNB-19
HT-29 = system: HT-29
HOP-92 = system: HOP-92
NCI-H226 = system: NCI-H226
HCT-116 = system: HCT-116
M19-MEL = system: M19-MEL
ACHN = system: ACHN
SF-295 = system: SF-295
SF-268 = system: SF-268
COLO 205 = system: COLO 205
HOP-62 = system: HOP-62
RPMI-8226 = system: RPMI-8226
Malme-3M = system: Malme-3M
HL-60 = system: HL-60
K562 = system: K562
HCT-15 = system: HCT-15
LXFL 529 = system: LXFL 529
SN12C = system: SN12C
UO-31 = system: UO-31
MOLT-4 = system: MOLT-4
SK-MEL-2 = system: SK-MEL-2
OVCAR-3 = system: OVCAR-3

O=C(Nc1ccc(Cl)c(Cl)c1)C(=O)Nn1c(S)nc2ccccc2c1=O
GI50 (SK-OV-3): > 100 µM (inactive) | GI50 (A549): > 100 µM (inactive) | GI50 (XF498): > 100 µM (inactive) | GI50 (UACC-62): > 100 µM (inactive) | GI50 (CAKI-1): > 100 µM (inactive) | GI50 (DMS-114): > 100 µM (inactive) | GI50 (IGROV-1): > 100 µM (inactive) | GI50 (NCI-H522): > 100 µM (inactive) | GI50 (OVCAR-8): > 100 µM (inactive) | GI50 (RXF 393): > 100 µM (inactive) | GI50 (A498): > 100 µM (inactive) | GI50 (NCI-H460): > 100 µM (inactive) | GI50 (NCI-H23): 76.9 µM (inactive) | GI50 (SNB-75): > 100 µM (inactive) | GI50 (EKVX): > 100 µM (inactive) | GI50 (DMS-273): > 100 µM (inactive) | GI50 (HCC 2998): > 100 µM (inactive) | GI50 (DLD-1): > 100 µM (inactive) | GI50 (SF-539): > 100 µM (inactive) | GI50 (U-251): > 100 µM (inactive) | GI50 (SK-MEL-28): > 100 µM (inactive) | GI50 (SNB-78): > 100 µM (inactive) | GI50 (KM-20L2): > 100 µM (inactive) | GI50 (TK-10): > 100 µM (inactive) | GI50 (OVCAR-5): > 100 µM (inactive) | GI50 (786-0): > 100 µM (inactive) | GI50 (SR): > 100 µM (inactive) | GI50 (SW-620): > 100 µM (inactive) | GI50 (HOP-18): > 100 µM (inactive) | GI50 (CCRF-CEM): > 100 µM (inactive) | GI50 (M14): > 100 µM (inactive) | GI50 (KM12): > 100 µM (inactive) | GI50 (SK-MEL-5): > 100 µM (inactive) | GI50 (UACC-257): > 100 µM (inactive) | GI50 (OVCAR-4): > 100 µM (inactive) | GI50 (LOX IMVI): > 100 µM (inactive) | GI50 (SNB-19): > 100 µM (inactive) | GI50 (HT-29): > 100 µM (inactive) | GI50 (HOP-92): 45.3 µM (inactive) | GI50 (NCI-H226): > 100 µM (inactive) | GI50 (HCT-116): > 100 µM (inactive) | GI50 (M19-MEL): > 100 µM (inactive) | GI50 (ACHN): > 100 µM (inactive) | GI50 (SF-295): > 100 µM (inactive) | GI50 (SF-268): > 100 µM (inactive) | GI50 (COLO 205): > 100 µM (inactive) | GI50 (HOP-62): > 100 µM (inactive) | GI50 (RPMI-8226): > 100 µM (inactive) | GI50 (Malme-3M): > 100 µM (inactive) | GI50 (HL-60): > 100 µM (inactive) | GI50 (K562): > 100 µM (inactive) | GI50 (HCT-15): > 100000 nM | GI50 (LXFL 529): > 100 µM (inactive) | GI50 (SN12C): > 100 µM (inactive) | GI50 (UO-31): > 100 µM (inactive) | GI50 (MOLT-4): > 100 µM (inactive) | GI50 (SK-MEL-2): > 100 µM (inactive)

COc1ccc(CN[C@H]2CCc3cc(OC)c(OC)c(OC)c3-c3ccc(SC)c(=O)cc32)c(OC)c1OC
GI50 (SK-OV-3): 0.0293 µM (active) | GI50 (A549): 0.0459 µM (active) | GI50 (XF498): 0.0308 µM (active) | GI50 (UACC-62): 0.023 µM (active) | GI50 (CAKI-1): 0.0452 µM (active) | GI50 (DMS-114): 0.019 µM (active) | GI50 (IGROV-1): 0.135 µM (active) | GI50 (NCI-H522): 0.0216 µM (active) | GI50 (OVCAR-8): 0.0277 µM (active) | GI50 (RXF 393): 0.0181 µM (active) | GI50 (A498): 0.0296 µM (active) | GI50 (NCI-H460): 0.026 µM (active) | GI50 (NCI-H23): 0.0219 µM (active) | GI50 (SNB-75): 0.0184 µM (active) | GI50 (EKVX): 0.0237 µM (active) | GI50 (DMS-273): 0.0267 µM (active) | GI50 (HCC 2998): 0.0202 µM (active) | GI50 (DLD-1): 0.0327 µM (active) | GI50 (SF-539): 0.0211 µM (active) | GI50 (U-251): 0.0194 µM (active) | GI50 (SK-MEL-28): 0.0443 µM (active) | GI50 (SNB-78): 0.0394 µM (active) | GI50 (KM-20L2): 0.0185 µM (active) | GI50 (TK-10): 0.0849 µM (active) | GI50 (OVCAR-5): 0.0421 µM (active) | GI50 (786-0): 0.037 µM (active) | GI50 (SR): 0.0167 µM (active) | GI50 (SW-620): 0.0416 µM (active) | GI50 (HOP-18): 58.3 µM (inactive) | GI50 (CCRF-CEM): 0.0356 µM (active) | GI50 (M14): 0.0308 µM (active) | GI50 (KM12): 0.0308 µM (active) | GI50 (SK-MEL-5): 0.0326 µM (active) | GI50 (UACC-257): 0.0811 µM (active) | GI50 (OVCAR-4): 0.0343 µM (active) | GI50 (LOX IMVI): 0.0352 µM (active) | GI50 (SNB-19): 0.0658 µM (active) | GI50 (HT-29): 0.0205 µM (active) | GI50 (HOP-92): 0.0681 µM (active) | GI50 (NCI-H226): 0.0237 µM (active) | GI50 (HCT-116): 0.0229 µM (active) | GI50 (M19-MEL): 0.0338 µM (active) | GI50 (ACHN): 0.063 µM (active) | GI50 (SF-295): 0.0296 µM (active) | GI50 (SF-268): 0.0366 µM (active) | GI50 (COLO 205): 0.0234 µM (active) | GI50 (HOP-62): 0.0319 µM (active) | GI50 (RPMI-8226): 0.0352 µM (active) | GI50 (Malme-3M): 0.0484 µM (active) | GI50 (OVCAR-3): 23.5 nM (active) | GI50 (HL-60): 0.0266 µM (active) | GI50 (K562): 0.0346 µM (active) | GI50 (HCT-15): 26.6 nM | GI50 (LXFL 529): 0.0447 µM (active) | GI50 (SN12C): 0.0381 µM (active) | GI50 (UO-31): 0.132 µM (active) | GI50 (MOLT-4): 0.0361 µM (active) | GI50 (SK-MEL-2): 0.0282 µM (active)
